Experimental data reported in patent US12441703B2, “Carboxamides as modulators of sodium channels” (VERTEX PHARMACEUTICALS INCORPORATED, priority 2019, dated 2025).
pIC50: −log10 of the molar value.

Biological target: human NaV 1.8 (Homo sapiens, UniProt Q9Y5Y9)
Assay: E-VIPR assay for detecting and measuring NaV inhibition properties
Type: cell-based
Settings: E-VIPR assay conducted in the absence of human serum (compounds marked *); HEK cells expressing truncated human NaV 1.8; read-out: IC50
Method in brief: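 HEK cells with truncated human NaV1.8 plus KIR2.1 BacMam, hexyl dye loaded 20 min, compound 30 min at room temperature, 11-point 3-fold series […], 0.625% DMSO, with or without human serum. E-VIPR biphasic stimulation at 10 Hz for 10 s; membrane-potential response read as normalized coumarin/oxonol ratio.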

Sequence of human NaV 1.8 (Q9Y5Y9 whole entry, looked up): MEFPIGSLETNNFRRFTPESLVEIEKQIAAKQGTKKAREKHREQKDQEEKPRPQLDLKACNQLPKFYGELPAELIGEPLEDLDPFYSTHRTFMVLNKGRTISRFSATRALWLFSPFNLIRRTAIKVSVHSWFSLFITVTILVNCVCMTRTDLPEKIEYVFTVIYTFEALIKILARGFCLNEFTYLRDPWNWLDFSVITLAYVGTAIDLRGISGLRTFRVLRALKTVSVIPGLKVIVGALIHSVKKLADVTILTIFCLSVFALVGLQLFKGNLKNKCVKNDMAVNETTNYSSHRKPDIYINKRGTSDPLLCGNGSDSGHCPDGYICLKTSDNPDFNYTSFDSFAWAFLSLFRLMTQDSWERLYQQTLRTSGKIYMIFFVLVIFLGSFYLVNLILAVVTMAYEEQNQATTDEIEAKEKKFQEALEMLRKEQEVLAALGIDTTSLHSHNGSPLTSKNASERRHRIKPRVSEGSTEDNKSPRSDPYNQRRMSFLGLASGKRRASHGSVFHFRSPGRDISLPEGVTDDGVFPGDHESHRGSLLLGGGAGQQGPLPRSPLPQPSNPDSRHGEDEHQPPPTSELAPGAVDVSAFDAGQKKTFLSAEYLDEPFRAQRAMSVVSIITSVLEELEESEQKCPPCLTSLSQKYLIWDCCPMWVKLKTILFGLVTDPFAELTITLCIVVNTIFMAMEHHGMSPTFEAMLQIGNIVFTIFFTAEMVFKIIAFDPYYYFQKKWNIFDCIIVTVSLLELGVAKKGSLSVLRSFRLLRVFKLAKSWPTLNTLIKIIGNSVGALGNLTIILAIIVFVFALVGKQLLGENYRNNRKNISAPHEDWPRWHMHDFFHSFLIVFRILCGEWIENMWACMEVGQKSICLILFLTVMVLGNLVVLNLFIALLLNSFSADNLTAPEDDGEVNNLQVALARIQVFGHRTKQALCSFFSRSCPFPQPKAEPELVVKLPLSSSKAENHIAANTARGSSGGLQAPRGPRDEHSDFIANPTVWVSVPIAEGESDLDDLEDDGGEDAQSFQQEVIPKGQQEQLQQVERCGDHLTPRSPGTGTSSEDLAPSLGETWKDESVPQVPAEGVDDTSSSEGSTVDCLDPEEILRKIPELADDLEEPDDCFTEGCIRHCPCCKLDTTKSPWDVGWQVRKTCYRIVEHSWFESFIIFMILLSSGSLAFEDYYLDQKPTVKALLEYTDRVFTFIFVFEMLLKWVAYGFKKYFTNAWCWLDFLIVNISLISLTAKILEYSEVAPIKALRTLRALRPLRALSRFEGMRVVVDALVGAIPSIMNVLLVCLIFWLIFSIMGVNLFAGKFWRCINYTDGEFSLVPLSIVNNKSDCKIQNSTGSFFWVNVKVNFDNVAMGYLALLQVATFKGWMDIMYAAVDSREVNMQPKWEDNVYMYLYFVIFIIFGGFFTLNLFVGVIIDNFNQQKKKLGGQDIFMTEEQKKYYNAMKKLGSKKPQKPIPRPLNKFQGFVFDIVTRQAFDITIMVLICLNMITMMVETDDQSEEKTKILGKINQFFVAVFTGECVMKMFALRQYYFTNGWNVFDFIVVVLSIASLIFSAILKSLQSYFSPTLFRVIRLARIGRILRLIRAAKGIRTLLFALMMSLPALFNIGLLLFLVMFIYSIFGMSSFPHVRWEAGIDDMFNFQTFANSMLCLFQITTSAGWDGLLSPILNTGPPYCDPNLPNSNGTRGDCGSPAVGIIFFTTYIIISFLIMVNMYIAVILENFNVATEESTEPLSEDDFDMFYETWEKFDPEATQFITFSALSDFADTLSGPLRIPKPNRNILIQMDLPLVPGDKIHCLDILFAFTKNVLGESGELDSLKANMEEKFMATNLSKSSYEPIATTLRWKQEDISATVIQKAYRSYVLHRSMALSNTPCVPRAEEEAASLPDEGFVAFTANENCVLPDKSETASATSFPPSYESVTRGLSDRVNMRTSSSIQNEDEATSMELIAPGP

Q: How did the pIC50 turn out when `COc1cc(OC(F)(F)F)ccc1Oc1cc(F)cc(F)c1C(=O)Nc1ccnc(C(N)=O)c1` [Compound 360, 4-[[2,4-difluoro-6-[2-methoxy-4-(trifluoromethoxy)phenoxy]benzoyl]amino]pyridine-2-carboxamide] was run?
A: Its pIC50 is 7.85.

Q: How did the pIC50 turn out when `Cc1c(Oc2ccc(C(F)(F)F)cc2C(=O)Nc2ccnc(C(N)=O)c2)ccc(F)c1F` [Compound 361, 4-[[2-(3,4-difluoro-2-methyl-phenoxy)-5-(trifluoromethyl)benzoyl]amino]pyridine-2-carboxamide] was run?
A: The pIC50 was 7.36.

Q: With `COc1cc(OC(F)(F)F)ccc1Oc1cc(OC)c(C)c(F)c1C(=O)Nc1ccnc(C(N)=O)c1` [Compound 362, 4-[[2-fluoro-4-methoxy-6-[2-methoxy-4-(trifluoromethoxy)phenoxy]-3-methyl-benzoyl]amino]pyridine-2-carboxamide] as the compound, how does the pIC50 read?
A: Its pIC50 is 8.70.

Q: With `COc1cc(OC(F)(F)F)ccc1Oc1cc(OC)c(C)c(Cl)c1C(=O)Nc1ccnc(C(N)=O)c1` [Compound 363, 4-[[2-chloro-4-methoxy-6-[2-methoxy-4-(trifluoromethoxy)phenoxy]-3-methyl-benzoyl]amino]pyridine-2-carboxamide] as the compound, how does the pIC50 read?
A: Its pIC50 is 8.52.

Q: How did the pIC50 turn out when `Cc1nc(C(C)(C)C)cc(Oc2ccc(F)cc2Cl)c1C(=O)Nc1ccnc(C(N)=O)c1` [Compound 364, 6-tert-butyl-N-(2-carbamoyl-4-pyridyl)-4-(2-chloro-4-fluoro-phenoxy)-2-methyl-pyridine-3-carboxamide] was run?
A: The pIC50 was 7.34.

Q: How did the pIC50 turn out when `COc1cc(Oc2ccc(F)cc2Cl)c(C(=O)Nc2cnc(C(N)=O)nc2)c(F)c1C(F)(F)F` [Compound 366, 5-[[6-(2-chloro-4-fluoro-phenoxy)-2-fluoro-4-methoxy-3-(trifluoromethyl)benzoyl]amino]pyrimidine-2-carboxamide] was run?
A: Its pIC50 is 7.89.

Q: How did the pIC50 turn out when `COc1c(C(F)(F)F)cc(Oc2ccc(F)cc2Cl)c(C(=O)Nc2cc(C(N)=O)ncc2C)c1F` [Compound 382, 4-(6-(2-Chloro-4-Fluorophenoxy)-2-Fluoro-3-Methoxy-4-(Trifluoromethyl)Benzamido)-5-Methylpicolinamide] was run?
A: Its pIC50 is 8.30.

Same assay, conditions: E-VIPR assay conducted in the presence of human serum; HEK cells expressing truncated human NaV 1.8; read-out: IC50

Q: `COc1cc(Oc2ccc(F)cc2Cl)c(C(=O)Nc2ccnc(C(N)=O)c2)c(F)c1C(F)(F)F` [Compound 365, 4-[[6-(2-chloro-4-fluoro-phenoxy)-2-fluoro-4-methoxy-3-(trifluoromethyl)benzoyl]amino]pyridine-2-carboxamide] was tested. Which pIC50 did it give?
A: The pIC50 was 7.30.

Q: `COc1cc(Oc2ccc(F)cc2Cl)c(C(=O)Nc2ccc(C(N)=O)nc2)c(F)c1C(F)(F)F` [Compound 367, 5-[[6-(2-chloro-4-fluoro-phenoxy)-2-fluoro-4-methoxy-3-(trifluoromethyl)benzoyl]amino]pyridine-2-carboxamide] was tested. Which pIC50 did it give?
A: Its pIC50 is 6.48.

Q: With `COc1cc(Oc2ccc(OC(F)(F)F)cc2Cl)c(C(=O)Nc2ccnc(C(N)=O)c2)c(F)c1C(F)(F)F` [Compound 368, 4-[[6-[2-Chloro-4-(Trifluoromethoxy)Phenoxy]-2-Fluoro-4-Methoxy-3-(Trifluoromethyl)Benzoyl]Amino]Pyridine-2-Carboxamide] as the compound, how does the pIC50 read?
A: Its pIC50 is 8.30.

Q: With `COc1cc(Oc2ccc(OC(F)(F)F)cc2Cl)c(C(=O)Nc2cnc(C(N)=O)nc2)c(F)c1C(F)(F)F` [Compound 369, 5-[[6-[2-chloro-4-(trifluoromethoxy)phenoxy]-2-fluoro-4-methoxy-3-(trifluoromethyl)benzoyl]amino]pyrimidine-2-carboxamide] as the compound, how does the pIC50 read?
A: Its pIC50 is 8.05.

Q: How did the pIC50 turn out when `COc1cc(Oc2ccc(OC(F)(F)F)cc2Cl)c(C(=O)Nc2ccc(C(N)=O)nc2)c(F)c1C(F)(F)F` [Compound 370, 5-[[6-[2-chloro-4-(trifluoromethoxy)phenoxy]-2-fluoro-4-methoxy-3-(trifluoromethyl)benzoyl]amino]pyridine-2-carboxamide] was run?
A: Its pIC50 is 7.37.

Q: How did the pIC50 turn out when `COc1cc(Oc2ccc(F)c(F)c2OC)c(C(=O)Nc2ccnc(C(N)=O)c2)c(F)c1C` [Compound 372, 4-[[6-(3,4-difluoro-2-methoxy-phenoxy)-2-fluoro-4-methoxy-3-methyl-benzoyl]amino]pyridine-2-carboxamide] was run?
A: The pIC50 was 7.92.

Q: How did the pIC50 turn out when `COc1c(Oc2cc(Cl)c(C)c(F)c2C(=O)Nc2ccnc(C(N)=O)c2)ccc(F)c1F` [Compound 373, 4-[[4-chloro-6-(3,4-difluoro-2-methoxy-phenoxy)-2-fluoro-3-methyl-benzoyl]amino]pyridine-2-carboxamide] was run?
A: The pIC50 was 8.22.

Q: With `COc1c(Oc2ccc(OC3CC3)c(F)c2C(=O)Nc2ccnc(C(N)=O)c2)ccc(F)c1F` [Compound 374, 4-[[3-(cyclopropoxy)-6-(3,4-difluoro-2-methoxy-phenoxy)-2-fluoro-benzoyl]amino]pyridine-2-carboxamide] as the compound, how does the pIC50 read?
A: The pIC50 was 7.47.

Q: `COc1c(Oc2cnc(C(F)(F)F)c(C)c2C(=O)Nc2ccnc(C(N)=O)c2)ccc(F)c1F` [Compound 375, N-(2-carbamoyl-4-pyridyl)-5-(3,4-difluoro-2-methoxy-phenoxy)-3-methyl-2-(trifluoromethyl)pyridine-4-carboxamide] was tested. Which pIC50 did it give?
A: The pIC50 was 7.54.

Q: How did the pIC50 turn out when `COc1c(Oc2cc(C(F)(F)F)c(OC)c(F)c2C(=O)Nc2cc(C(N)=O)ncc2C)ccc(F)c1F` [Compound 376, 4-[[6-(3,4-difluoro-2-methoxy-phenoxy)-2-fluoro-3-methoxy-4-(trifluoromethyl)benzoyl]amino]-5-methyl-pyridine-2-carboxamide] was run?
A: The pIC50 was 8.05.

Q: With `COc1c(Oc2cc(C(F)(F)F)c(OC)c(F)c2C(=O)Nc2ccc(C(N)=O)nc2)ccc(F)c1F` [Compound 377, 5-[[6-(3,4-difluoro-2-methoxy-phenoxy)-2-fluoro-3-methoxy-4-(trifluoromethyl)benzoyl]amino]pyridine-2-carboxamide] as the compound, how does the pIC50 read?
A: Its pIC50 is 7.68.

Q: `COc1cc(Oc2ccc(F)c(F)c2OC)c(C(=O)Nc2cnc(C(N)=O)nc2)c(F)c1C(F)(F)F` [Compound 380, 5-[[6-(3,4-difluoro-2-methoxy-phenoxy)-2-fluoro-4-methoxy-3-(trifluoromethyl)benzoyl]amino]pyrimidine-2-carboxamide] was tested. Which pIC50 did it give?
A: Its pIC50 is 7.59.

Q: With `COc1cc(Oc2ccc(F)c(F)c2OC)c(C(=O)Nc2ccc(C(N)=O)nc2)c(F)c1C(F)(F)F` [Compound 381, 5-[[6-(3,4-difluoro-2-methoxy-phenoxy)-2-fluoro-4-methoxy-3-(trifluoromethyl)benzoyl]amino]pyridine-2-carboxamide] as the compound, how does the pIC50 read?
A: The pIC50 was 7.80.

Q: `COc1cc(OC(F)(F)F)ccc1Oc1ccc(C(F)(F)F)c(O)c1C(=O)Nc1ccnc(C(N)=O)c1` [Compound 383, 4-[[2-hydroxy-6-[2-methoxy-4-(trifluoromethoxy)phenoxy]-3-(trifluoromethyl)benzoyl]amino]pyridine-2-carboxamide] was tested. Which pIC50 did it give?
A: The pIC50 was under 5.52.

Q: With `[2H]C([2H])([2H])Oc1cc(OC(F)(F)F)ccc1Oc1cc(C2=CCCCC2)cc(F)c1C(=O)Nc1ccnc(C(N)=O)c1` [Compound 1001, 4-[[4-(cyclohexen-1-yl)-2-fluoro-6-[2-(trideuteriomethoxy)-4-(trifluoromethoxy)phenoxy]benzoyl]amino]pyridine-2-carboxamide] as the compound, how does the pIC50 read?
A: The pIC50 was 7.72.

Q: With `[2H]C([2H])([2H])Oc1cc(OC(F)(F)F)ccc1Oc1cc(C2=COCCC2)cc(F)c1C(=O)Nc1ccnc(C(N)=O)c1` [Compound 1002, 4-[[4-(3,4-dihydro-2H-pyran-5-yl)-2-fluoro-6-[2-(trideuteriomethoxy)-4-(trifluoromethoxy)phenoxy]benzoyl]amino]pyridine-2-carboxamide] as the compound, how does the pIC50 read?
A: The pIC50 was 7.52.

Q: `[2H]C([2H])([2H])Oc1cc(OC(F)(F)F)ccc1Oc1cc(C2=CCC(F)(F)CC2)cc(F)c1C(=O)Nc1ccnc(C(N)=O)c1` [Compound 1003, 4-[[4-(4,4-difluorocyclohexen-1-yl)-2-fluoro-6-[2-(trideuteriomethoxy)-4-(trifluoromethoxy)phenoxy]benzoyl]amino]pyridine-2-carboxamide] was tested. Which pIC50 did it give?
A: The pIC50 was 7.59.

Q: With `[2H]C([2H])([2H])Oc1cc(OC(F)(F)F)ccc1Oc1cc(C2=CCOC2)cc(F)c1C(=O)Nc1ccnc(C(N)=O)c1` [Compound 1004, 4-[[4-(2,5-dihydrofuran-3-yl)-2-fluoro-6-[2-(trideuteriomethoxy)-4-(trifluoromethoxy)phenoxy]benzoyl]amino]pyridine-2-carboxamide] as the compound, how does the pIC50 read?
A: Its pIC50 is 7.54.

Q: `[2H]C([2H])([2H])Oc1cc(OC(F)(F)F)ccc1Oc1cc(C2=CCOCC2)cc(F)c1C(=O)Nc1ccnc(C(N)=O)c1` [Compound 1005, 4-[[4-(3,6-dihydro-2H-pyran-4-yl)-2-fluoro-6-[2-(trideuteriomethoxy)-4-(trifluoromethoxy)phenoxy]benzoyl]amino]pyridine-2-carboxamide] was tested. Which pIC50 did it give?
A: Its pIC50 is 6.92.

Q: How did the pIC50 turn out when `[2H]C([2H])([2H])Oc1cc(OC(F)(F)F)ccc1Oc1cc(-c2ccccc2C(N)=O)cc(F)c1C(=O)Nc1ccnc(C(N)=O)c1` [Compound 1006, 4-[[4-(2-carbamoylphenyl)-2-fluoro-6-[2-(trideuteriomethoxy)-4-(trifluoromethoxy)phenoxy]benzoyl]amino]pyridine-2-carboxamide] was run?
A: The pIC50 was under 5.52.

Q: With `[2H]C([2H])([2H])Oc1cc(OC(F)(F)F)ccc1Oc1cc(-c2ccc(OC)cc2)cc(F)c1C(=O)Nc1ccnc(C(N)=O)c1` [Compound 1007, 4-[[2-fluoro-4-(4-methoxyphenyl)-6-[2-(trideuteriomethoxy)-4-(trifluoromethoxy)phenoxy]benzoyl]amino]pyridine-2-carboxamide] as the compound, how does the pIC50 read?
A: Its pIC50 is 6.77.

Q: With `[2H]C([2H])([2H])Oc1cc(OC(F)(F)F)ccc1Oc1cc(C2=COCC2)cc(F)c1C(=O)Nc1ccnc(C(N)=O)c1` [Compound 1008, 4-[[4-(2,3-dihydrofuran-4-yl)-2-fluoro-6-[2-(trideuteriomethoxy)-4-(trifluoromethoxy)phenoxy]benzoyl]amino]pyridine-2-carboxamide] as the compound, how does the pIC50 read?
A: Its pIC50 is 7.68.

Q: `[2H]C([2H])([2H])Oc1cc(OC(F)(F)F)ccc1Oc1cc(C2=CCC(OC)CC2)cc(F)c1C(=O)Nc1ccnc(C(N)=O)c1` (stereo not drawn) [Compound 1009, 4-[[2-fluoro-4-(4-methoxycyclohexen-1-yl)-6-[2-(trideuteriomethoxy)-4-(trifluoromethoxy)phenoxy]benzoyl]amino]pyridine-2-carboxamide] was tested. Which pIC50 did it give?
A: Its pIC50 is 6.77.
